Experimental data as given in patent US5773411A, “Cyclic compounds linked by a heterocyclic ring useful as inhibitors of platelet glycoprotein IIB/IIIA” (The DuPont Merck Pharmaceutical Company, priority 1994, dated 1998).

System: agonist-induced platelet aggregation in platelet-rich plasma (PRP)
Test: Platelet Aggregation Assay
Format: cell-based
Conditions: human PRP; agonists ADP, collagen, arachidonate, epinephrine, thrombin; compound added prior to activation of the platelets
Procedure: Platelet Aggregation Assay
Venous blood was obtained from the arm of a healthy human donor who was drug-free and aspirin-free for at least two weeks prior to blood collection. Blood was collected into 10 ml citrated Vacutainer tubes. The blood was centrifuged for 15 minutes at 150×g at room temperature, and platelet-rich plasma (PRP) was removed. The remaining blood was centrifuged for 15 minutes at 1500×g at room temperature, and platelet-poor plasma (PPP) was removed. Samples were assayed on a aggregometer (PAP-4 Platelet Aggregation Profiler), using PPP as the blank (100% transmittance). 200 μl of PRP was added to each micro test tube, and transmittance was set to 0%. 20 μl of various agonists (ADP, collagen, arachidonate, epinephrine, thrombin) were added to each tube, and the aggregation profiles were plotted (% transmittance versus time). The results were expressed as % inhibition of agonist-induced platelet aggregation. For the IC50 evaluation, the test compounds were added at various concentrations prior to the activation of the platelets.

| Compound | IC50 [nM] |
| --- | --- |
| cyclo-(D-Val-N(Me)Arg-Gly-Asp-[2-amino]-4-thiazoleacetate) [Example 4] | < 1000 |
| CC(C)[C@H]1NC(=O)C2=CC=C(CNC(=O)[C@H](CC(=O)O)NC(=O)CNC(=O)[C@H](CCCNC(=N)N)N(C)C1=O)O2 [Example 1, cyclo-(D-Val-N(Me)Arg-Gly-Asp-[5-aminomethyl]-2-furoate)] | < 1000 |
| CC(C)[C@H]1NC(=O)c2cccc(n2)CNC(=O)[C@H](CC(=O)O)NC(=O)CNC(=O)[C@H](CCCNC(=N)N)N(C)C1=O [Example 3, cyclo(6-(D-Val-NMeArg-Gly-Asp)aminomethyl-2-pyridinecarboxylate)] | 1000 to 10000 |
